Patent US20260049085A1, “CYCLIC COMPOUNDS AND METHODS OF USING SAME” (SCHRÖDINGER, INC., priority 2022, published 2026)

Target: T1, full-length MALT1 protein His-MALT1(1-824) (Homo sapiens, UniProt Q9UDY8)
T1 construct: full-length MALT1 protein His-MALT1(1-824); His (N); made in house; host or cells: baculovirus-infected insect cells
T1 sequence (Q9UDY8 1-824): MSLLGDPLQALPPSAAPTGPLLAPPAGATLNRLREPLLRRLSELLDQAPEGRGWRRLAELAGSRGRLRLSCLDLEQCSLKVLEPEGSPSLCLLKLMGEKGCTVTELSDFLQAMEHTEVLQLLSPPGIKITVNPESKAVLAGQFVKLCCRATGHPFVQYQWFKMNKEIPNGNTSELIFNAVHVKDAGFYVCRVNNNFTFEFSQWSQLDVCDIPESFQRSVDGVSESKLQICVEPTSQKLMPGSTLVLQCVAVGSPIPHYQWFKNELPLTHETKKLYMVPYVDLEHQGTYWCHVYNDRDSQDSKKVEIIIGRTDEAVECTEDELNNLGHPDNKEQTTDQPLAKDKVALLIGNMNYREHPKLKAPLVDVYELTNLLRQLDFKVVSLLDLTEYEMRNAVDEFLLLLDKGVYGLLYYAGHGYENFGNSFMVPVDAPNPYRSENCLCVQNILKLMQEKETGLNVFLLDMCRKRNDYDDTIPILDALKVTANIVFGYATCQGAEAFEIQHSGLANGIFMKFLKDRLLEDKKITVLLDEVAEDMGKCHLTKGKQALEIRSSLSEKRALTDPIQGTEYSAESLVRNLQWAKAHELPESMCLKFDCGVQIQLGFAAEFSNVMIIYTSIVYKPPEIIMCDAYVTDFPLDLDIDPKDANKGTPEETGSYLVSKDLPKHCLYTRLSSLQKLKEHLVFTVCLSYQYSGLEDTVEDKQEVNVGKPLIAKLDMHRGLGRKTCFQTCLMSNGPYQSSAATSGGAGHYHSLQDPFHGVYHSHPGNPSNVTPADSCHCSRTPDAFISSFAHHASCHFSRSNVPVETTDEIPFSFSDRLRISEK
Experiment: MALT1 protease assay (Ac-LRSR-AMC tetrapeptide substrate, fluorescence)
Type: biochemical
Settings: 1 nM MALT1, 25 μM Ac-LRSR-AMC, 2 h pre-incubation, 8 hr incubation at RT
Protocol: MALT1 protease activity was assessed in an in vitro assay using a tetrapeptide as substrate and full-length MALT1 protein His-MALT1(1-824) purified from baculovirus-infected insect cells.
The final assay buffer includes 1 nM of MALT1 full-length protein, 25 μM Ac-LRSR-AMC substrate, 50 mM Tris pH 7.5, 600 mM Sodium Citrate, 1 mM DTT, 1 mM EDTA, and 0.05% BSA in 384-well plate format using black microtiter square well plates (Optiplate 384-F, Perkin Elmer).
Test compounds were dissolved in 100% DMSO stock of 10 mM, with final DMSO concentration of 0.1%. Test compounds were pre-incubated with MALT1 protein for 2 h at room temperature. Substrate was added after the pre-incubation and fluorescence signal was measured using Envision at excitation 355 nm and emission 460 nm after 8 hr incubation at RT.
The fluorescence units were transformed to percentage of remaining activity by using the high control (HC, median of fluorescence signal from wells containing MALT1 protein, substrate, and DMSO) and low control (LC, median of fluorescence signal from wells with substrate only) with the formula below: […]
IC50 and Hill coefficients were obtained using Graph Pad Prism (Graph Pad software, Inc, USA) with non-linear regression analysis.

Row | SMILES | IC50 [nM]
1 | C[C@@]1(c2cnn(C(F)F)c2)C[C@@H](C(=O)Nc2cnc(OC(F)F)c(C#N)c2)c2cnc3cc(F)nn3c21 (single isomer, unassigned) [Example 93] | ≥ 1000
2 | C[C@@]1(c2ccn(C(F)F)n2)C[C@H](C(=O)Nc2ccc(-c3ncccn3)c(Cl)c2)c2cnc3cc(F)nn3c21 (single isomer, unassigned) [Example 191] | ≥ 1000
3 | C[C@]1(c2ccn(C(F)F)n2)C[C@@H](C(=O)Nc2cnc(-c3ncccn3)c(Cl)c2)c2cnc3cc(F)nn3c21 (single isomer, unassigned) [Example 143] | ≥ 1000
4 | C[C@]1(c2cn(C(F)F)nn2)C[C@H](C(=O)Nc2cnc(-n3nccn3)c(Cl)c2)c2cnc3cc(F)nn3c21 (single isomer, unassigned) [Example 175] | 10 to 100
5 | C[C@]1(c2cncs2)C[C@@H](C(=O)Nc2cnc(-n3nccn3)c(Cl)c2)c2cnc3cc(F)nn3c21 (single isomer, unassigned) [Example 39] | 10 to 100
6 | C[C@]1(c2ccn(C(F)F)n2)C[C@@H](C(=O)Nc2cnc(-n3nccn3)c(C(F)(F)F)c2)c2cnc3cc(F)nn3c21 (single isomer, unassigned) [Example 127] | 10 to 100
7 | C[C@]1(c2ccn(C3CC3)n2)C[C@@H](C(=O)Nc2cnc(-n3nccn3)c(Cl)c2)c2cnc3cc(F)nn3c21 (single isomer, unassigned) [Example 155] | ≥ 1000
8 | C[C@]1(c2cnn(C(F)F)n2)C[C@H](C(=O)Nc2cnc(-n3nccn3)c(Cl)c2)c2cnc3cc(F)nn3c21 (single isomer, unassigned) [Example 177] | < 10
9 | C[C@@]1(c2cncs2)C[C@@H](C(=O)Nc2cnc(-n3nccn3)c(Cl)c2)c2cnc3cc(F)nn3c21 (single isomer, unassigned) [Example 37] | ≥ 1000
10 | CC1(c2ccn(C(F)F)n2)CC(C(=O)Nc2cnc(-c3ncc(F)cn3)c(Cl)c2)c2cnc3cc(F)nn3c21 (single isomer, unassigned) [Example 115] | 100 to 1000
11 | C[C@@]1(c2cnn(C3CC3)c2)C[C@@H](C(=O)Nc2cnc(OC(F)F)c(C#N)c2)c2cnc3cc(F)nn3c21 (single isomer, unassigned) [Example 73] | ≥ 1000
12 | C[C@@]1(c2ccn(C3CC3)n2)C[C@@H](C(=O)Nc2cnc(-n3nccn3)c(Cl)c2)c2cnc3cc(F)nn3c21 (single isomer, unassigned) [Example 153] | ≥ 1000
13 | C[C@@]1(c2ccn(C(F)F)n2)C[C@H](C(=O)Nc2cnc(-n3nccn3)c(C(F)(F)F)c2)c2cnc3cc(F)nn3c21 (single isomer, unassigned) [Example 126] | 10 to 100
14 | Cc1cc(NC(=O)C2CC(C)(c3ccn(C(F)F)n3)c3c2cnc2cc(F)nn32)cnc1-c1ncccn1 (single isomer, unassigned) [Example 183] | 10 to 100
15 | CC1(c2cnn(C(F)F)c2)CC(C(=O)Nc2cnc(-c3ncc(F)cn3)c(Cl)c2)c2cnc3cc(F)nn3c21 (single isomer, unassigned) [Example 135] | 100 to 1000
16 | CC1(n2ccc([C@]3(C)C[C@H](C(=O)Nc4cnc(-c5ncccn5)c(C(F)(F)F)c4)c4cnc5cc(F)nn5c43)n2)CC1 (single isomer, unassigned) [Example 160] | 100 to 1000

Other lines, results leading:

Row | IC50 [nM] | SMILES
17 | ≥ 1000 | C[C@@]1(c2cnn(C(F)(F)F)c2)C[C@@H](C(=O)Nc2cnc(-n3nccn3)c(Cl)c2)c2cnc3cc(F)nn3c21 (single isomer, unassigned) [Example 103]
18 | 100 to 1000 | Cn1cc([C@@]2(C)C[C@@H](C(=O)Nc3cnc(-n4nccn4)c(C(F)(F)F)c3)c3cnc4cc(F)nn4c32)cn1 (single isomer, unassigned) [Example 6]
19 | 10 to 100 | C[C@@]1(c2cnn(CC(F)(F)F)c2)C[C@H](C(=O)Nc2cnc(-n3nccn3)c(Cl)c2)c2cnc3cc(F)nn3c21 (single isomer, unassigned) [Example 86]
20 | ≥ 1000 | CC1(c2cnn(C3(C)CC3)c2)CC(C(=O)Nc2cnc(-n3nccn3)c(Cl)c2)c2cnc3cc(F)nn3c21 (single isomer, unassigned) [Example 107]
21 | 100 to 1000 | CC(F)(F)n1cc([C@@]2(C)C[C@@H](C(=O)Nc3cnc(-n4nccn4)c(Cl)c3)c3cnc4cc(F)nn4c32)cn1 (single isomer, unassigned) [Example 123]
22 | ≥ 1000 | Cn1cc([C@]2(C)C[C@@H](C(=O)Nc3ccnc(C(F)(F)F)c3)c3cnc4cc(Cl)nn4c32)cn1 (single isomer, unassigned) [Example 45]
23 | 10 to 100 | C[C@@]1(c2cnn(C(F)F)c2)C[C@H](C(=O)Nc2cnc(-n3nccn3)c(C(F)(F)F)c2)c2cnc3cc(F)nn3c21 (single isomer, unassigned) [Example 82]
24 | 100 to 1000 | Cn1cc([C@]2(C)C[C@H](C(=O)Nc3cnc(OC(F)(F)F)c(C#N)c3)c3cnc4cc(F)nn4c32)cn1 (single isomer, unassigned) [Example 54]
25 | 100 to 1000 | C[C@]1(c2cnn(CC(F)(F)F)c2)C[C@@H](C(=O)Nc2cnc(-n3nccn3)c(Cl)c2)c2cnc3cc(F)nn3c21 (single isomer, unassigned) [Example 87]
26 | ≥ 1000 | Cn1cc([C@]2(C)C[C@@H](C(=O)Nc3cnc(-n4nccn4)c(C(F)(F)F)c3)c3cnc4cc(F)nn4c32)cn1 (single isomer, unassigned) [Example 4]
27 | 100 to 1000 | Cn1cc([C@]2(C)C[C@H](C(=O)Nc3cnc(-n4nccn4)c(Cl)c3)c3cnc4c(F)c(F)nn4c32)cn1 (single isomer, unassigned) [Example 14]
28 | 100 to 1000 | Cn1ccc([C@@]2(C)C[C@@H](C(=O)Nc3cnc(-n4nccn4)c(C(F)(F)F)c3)c3cnc4cc(F)nn4c32)n1 (single isomer, unassigned) [Example 147]
29 | ≥ 1000 | CC(C)n1cc([C@]2(C)C[C@@H](C(=O)Nc3cnc(-n4nccn4)c(Cl)c3)c3cnc4cc(F)nn4c32)cn1 (single isomer, unassigned) [Example 49]
30 | 10 to 100 | CC(F)(F)n1ccc([C@@]2(C)C[C@H](C(=O)Nc3cnc(-c4ncccn4)c(Cl)c3)c3cnc4cc(F)nn4c32)n1 (single isomer, unassigned) [Example 168]
31 | ≥ 1000 | C[C@@]1(c2cn(C(F)F)nn2)C[C@@H](C(=O)Nc2cnc(-n3nccn3)c(Cl)c2)c2cnc3cc(F)nn3c21 (single isomer, unassigned) [Example 176]
32 | 100 to 1000 | Cn1cc([C@@]2(C)C[C@@H](C(=O)Nc3cnc(-n4nccn4)c(Cl)c3)c3cnc4cc(Cl)nn4c32)cn1 (single isomer, unassigned) [Example 11]
33 | ≥ 1000 | C[C@]1(c2cnn(C(F)F)c2)C[C@@H](C(=O)Nc2cnc(-n3nccn3)c(Cl)c2)c2cnc3cc(F)nn3c21 (single isomer, unassigned) [Example 27]
34 | 100 to 1000 | Cn1ccc([C@@]2(C)C[C@@H](C(=O)Nc3cnc(-n4nccn4)c(Cl)c3)c3cnc4cc(Cl)nn4c32)n1 (single isomer, unassigned) [Example 79]
35 | 100 to 1000 | C[C@]1(c2cnn(C(F)F)c2)C[C@@H](C(=O)Nc2cnc(-c3ncccn3)c(C(F)(F)F)c2)c2cnc3cc(F)nn3c21 (single isomer, unassigned) [Example 151]
36 | ≥ 1000 | Cn1cc([C@]2(C)C[C@@H](C(=O)Nc3cnc(-n4nccn4)c(Cl)c3)c3cnc4c(F)c(F)nn4c32)cn1 (single isomer, unassigned) [Example 13]
